The source of these data is patent US20260062422A1 (Halda Therapeutics OpCo, Inc., priority 2022, published 2026).

The test system of one test is VCaP cells. The experiment in a line: Cellular growth inhibition assay for VCaP cells, CellTiter-Glo. Type of test: cell-based, human. The conditions noted are these: Homo sapiens, VCaP, 72 h, 72 hours treatment, CellTiter-Glo 2.0. The procedure, abridged:
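GI50 values come from four-parameter curve fits of luminescence data normalized to a zero baseline. Compound, in medium with 0.5% DMSO, was added one day after plating and left for 72 h before CellTiter-Glo 2.0 addition.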

Test [1] concerns T-Rex 293 cell line SC3 cells having increased expression of androgen receptor protein due to exposure to doxycycline. The experiment in a line: Cellular growth inhibition, T-Rex 293 SC3 cells with doxycycline (androgen receptor induced), CellTiter-Glo. Type of test: cell-based. Particulars: 72 h, T-Rex 293 SC3 cells with 10 ng/mL doxycycline (increased androgen receptor expression). The procedure, abridged:
(§1)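 With DMSO (0.5%) vehicle as negative control, compounds treated SC3 cells for 72 h in medium containing charcoal-dextran FBS ± doxycycline. This T-Rex 293 clone expresses transfected wild-type AR on induction. Readout: CellTiter-Glo 2.0; GI50 by nonlinear regression.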

The next test relates to T47D cells. As to the kind of experiment: Cellular growth inhibition assay for T47D cells, CellTiter-Glo. Type of test: cell-based, human. Particulars: Homo sapiens, T47D, 72 h, 72 hours treatment, CellTiter-Glo 2.0 cell viability. The procedure, abridged:
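Cells are plated at 3000/well and allowed 24 h before treatment. Test compound in medium containing 0.5% DMSO is then added, with DMSO-only wells as negative control, and plates are incubated 72 h at 37 °C. ATP luminescence (CellTiter-Glo 2.0) is then fitted to four parameters to derive GI50.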

For test [2], the system named is T-Rex 293 cell line SC3 cells lacking increased expression of androgen receptor protein. As to the kind of experiment: Cellular growth inhibition, T-Rex 293 SC3 cells without doxycycline, CellTiter-Glo. Format: cell-based. Particulars: 72 h, T-Rex 293 SC3 cells not exposed to doxycycline, CellTiter-Glo 2.0. The procedure, abridged: as §1
Background: ATP-based viability assays read luminescence as a measure of living cells.

Structures are written as SMILES.

The GI50 is the concentration at which growth is held to half of that of the control. Read a high GI50 as lower sensitivity of the cells. In the case of `Cc1sc2c(c1C)C(c1ccc(-c3ncc(C4CCN(c5ncc(C(=O)N[C@H]6C(C)(C)[C@H](Oc7ccc(C#N)c(Cl)c7)C6(C)C)cn5)CC4)o3)cc1)=N[C@@H](Cc1ncco1)c1nnc(C)n1-2` [Compound I-442], the GI50 in the test on VCaP cells was < 0.5 µM; in test [1] it was < 0.5 µM; in the test with T47D cells it was < 0.5 µM; in test [2], > 3 µM.
Take `COC[C@@H]1N=C(c2ccc(OC3CC4(CCN(c5ncc(C(=O)N[C@H]6C(C)(C)[C@H](Oc7ccc(C#N)c(Cl)c7)C6(C)C)cn5)CC4)C3)cc2)c2c(sc(C)c2C)-n2c(C)nnc21` [Compound I-565]: the GI50 was < 0.5 µM with VCaP cells, < 0.5 µM in test [1], 1.5 to 3 µM in the test with T47D cells and > 3 µM in test [2].
As to `Cc1sc2c(c1C)C(c1ccc([C@H]3C[C@H]([C@H]4CCN(c5ncc(C(=O)N[C@H]6C(C)(C)[C@H](Oc7ccc(C#N)c(Cl)c7)C6(C)C)cn5)C4)C3)cc1)=N[C@@H](Cc1ncco1)c1nnc(C)n1-2` [Compound I-416], the GI50 in the test with VCaP cells was < 0.5 µM; in test [1], < 0.5 µM; in the test on T47D cells it was < 0.5 µM; in test [2] it was > 3 µM.
Take `Cc1sc2c(c1C)C(c1ccc(CN3CCC4(CCCN(c5ncc(C(=O)N[C@H]6C(C)(C)[C@H](Oc7ccc(C#N)c(Cl)c7)C6(C)C)cn5)C4)C3)cc1)=N[C@H](Cc1ncco1)c1nnc(C)n1-2` (stereo partly drawn) [Compound I-146]: the GI50 in the test with VCaP cells was < 0.5 µM; in test [1] it was < 0.5 µM; in the test with T47D cells, < 0.5 µM; in test [2], 0.5 to 1.5 µM.
Turning to `Cc1sc2c(c1C)C(c1ccc(Nc3ccc(N4CCN(c5ncc(C(=O)N[C@H]6C(C)(C)[C@H](Oc7ccc(C#N)c(Cl)c7)C6(C)C)cn5)CC4)c(C(F)(F)F)c3)cc1)=N[C@@H](C)c1nnc(C)n1-2` [Compound I-602], the GI50 (with VCaP cells; in test [1]; with T47D cells; in test [2]) was > 3 µM in each case.
For `Cc1sc2c(c1C)C(c1ccc(N(C)CC(=O)N3CCC(c4ncc(C(=O)N[C@H]5C(C)(C)[C@H](Oc6ccc(C#N)c(Cl)c6)C5(C)C)cn4)CC3)cc1)=N[C@@H](Cc1ncco1)c1nnc(C)n1-2` [Compound I-355], the GI50 (in the test with VCaP cells; in test [1]; with T47D cells; in test [2]) was > 3 µM each time.
As to `CCNC(=O)C[C@@H]1N=C(c2ccc(N3CC(CC4CN(c5ncc(C(=O)N[C@H]6C(C)(C)[C@H](Oc7ccc(C#N)c(Cl)c7)C6(C)C)cn5)C4)C3)cc2)c2c(sc(C)c2C)-n2c(C)nnc21` [Compound I-127], the GI50 was < 0.5 µM in the test with VCaP cells, < 0.5 µM in test [1], < 0.5 µM with T47D cells and 0.5 to 1.5 µM in test [2].
On to `Cc1sc2c(c1C)C(c1ccc(N[C@@H]3CCC[C@H](Nc4ncc(C(=O)N[C@H]5C(C)(C)[C@H](Oc6ccc(C#N)c(Cl)c6)C5(C)C)cn4)C3)cc1)=NC(Cc1ncco1)c1nnc(C)n1-2` (stereo partly drawn) [Compound I-653], for which the GI50 (in the test with VCaP cells; in test [1]; with T47D cells; in test [2]) was < 0.5 µM each time.
For `Cc1sc2c(c1C)C(c1ccc(C3CC(N4CCN(c5ncc(C(=O)N[C@H]6C(C)(C)[C@H](Oc7ccc(C#N)c(Cl)c7)C6(C)C)cn5)CC4)C3)cc1)=N[C@@H](Cc1ncco1)c1nnc(C)n1-2` (stereo partly drawn) [Compound I-475], the GI50 with VCaP cells is < 0.5 µM; in test [1], < 0.5 µM; in the test on T47D cells it was < 0.5 µM; in test [2] it was 0.5 to 1.5 µM.
For `Cc1sc2c(c1C)C(c1ccc(C(=O)N3CC[C@]4(CCCN(c5ncc(C(=O)N[C@H]6C(C)(C)[C@H](Oc7ccc(C#N)c(Cl)c7)C6(C)C)cn5)C4)C3)cc1)=N[C@H](Cc1ncco1)c1nnc(C)n1-2` [Compound I-259], the concentration for 50% growth inhibition (GI50) was 1.5 to 3 µM in the test on VCaP cells, < 0.5 µM in test [1], 0.5 to 1.5 µM in the test with T47D cells and > 3 µM in test [2].
In the case of `Cc1sc2c(c1C)C(c1ccc(CCC[C@@H]3CCCN(c4ncc(C(=O)N[C@H]5C(C)(C)[C@H](Oc6ccc(C#N)c(Cl)c6)C5(C)C)cn4)C3)cc1)=N[C@@H](C)c1nnc(C)n1-2` [Compound I-353], the GI50 is > 3 µM in the test with VCaP cells, < 0.5 µM in test [1], > 3 µM in the test on T47D cells and > 3 µM in test [2].
For the compound `Cc1sc2c(c1C)C(c1ccc(N3CCCC4(CCN(c5ncc(C(=O)N[C@H]6C(C)(C)[C@H](Oc7ccc(C#N)c(Cl)c7)C6(C)C)cn5)CC4)C3)cc1)=NC(Cc1ncco1)c1nnc(C)n1-2` (stereo partly drawn) [Compound I-637], the GI50 in the test with VCaP cells is < 0.5 µM; in test [1], < 0.5 µM; in the test with T47D cells it was < 0.5 µM; in test [2] it was > 3 µM.
Take `CCNC(=O)C[C@@H]1N=C(c2ccc(OCCN3CCN(c4ncc(C(=O)N[C@H]5C(C)(C)[C@H](Oc6ccc(C#N)c(Cl)c6)C5(C)C)cn4)CC3)cc2)c2c(sc(C)c2C)-n2c(C)nnc21` [Compound I-70]: the GI50 in the test on VCaP cells is < 0.5 µM; in test [1], < 0.5 µM; in the test on T47D cells, 0.5 to 1.5 µM; in test [2], 0.5 to 1.5 µM.
`Cc1sc2c(c1C)C(c1ccc(CC3CN(C4CCN(c5ncc(C(=O)N[C@H]6C(C)(C)[C@H](Oc7ccc(C#N)c(Cl)c7)C6(C)C)cn5)C4)C3)cc1)=N[C@@H](Cc1ncco1)c1nnc(C)n1-2` (stereo partly drawn) [Compound I-154]: the GI50 (in the test on VCaP cells; in test [1]; with T47D cells; in test [2]) was < 0.5 µM throughout.
`Cc1sc2c(c1C)C(c1ccc(C(=O)N3CCC[C@H](C(=O)c4ncc(C(=O)N[C@H]5C(C)(C)[C@H](Oc6ccc(C#N)c(Cl)c6)C5(C)C)cn4)C3)cc1)=N[C@@H](Cc1ncco1)c1nnc(C)n1-2` [Compound I-345]: the GI50 in the test on VCaP cells is > 3 µM; in test [1] it was > 3 µM; in the test on T47D cells, 1.5 to 3 µM; in test [2] it was > 3 µM.
`CCNC(=O)C[C@@H]1N=C(c2ccc(CCC3CN(c4ncc(C(=O)N[C@H]5C(C)(C)[C@H](Oc6ccc(C#N)c(Cl)c6)C5(C)C)cn4)C3)cc2)c2c(sc(C)c2C)-n2c(C)nnc21` [Compound I-93]: the GI50 in the test on VCaP cells was < 0.5 µM; in test [1] it was < 0.5 µM; in the test with T47D cells, 0.5 to 1.5 µM; in test [2] it was 0.5 to 1.5 µM.
For `Cc1sc2c(c1C)C(c1ccc(NCC(=O)N3CCC(c4ncc(C(=O)N[C@H]5C(C)(C)[C@H](Oc6ccc(C#N)c(Cl)c6)C5(C)C)cn4)CC3)cc1)=N[C@@H](Cc1ncco1)c1nnc(C)n1-2` [Compound I-274], the GI50 with VCaP cells was > 3 µM; in test [1], < 0.5 µM; in the test with T47D cells it was 0.5 to 1.5 µM; in test [2], > 3 µM.
`Cc1sc2c(c1C)C(c1ccc(N3CC4(CCN(c5ncc(C(=O)N[C@H]6C(C)(C)[C@H](Oc7ccc(C#N)c(Cl)c7)C6(C)C)cn5)C4)C3)cc1)=NC(Cc1ncco1)c1nnc(C)n1-2` (stereo partly drawn) [Compound I-656]: the GI50 in the test with VCaP cells is < 0.5 µM; in test [1] it was < 0.5 µM; in the test on T47D cells it was < 0.5 µM; in test [2] it was 0.5 to 1.5 µM.
Turning to `Cc1sc2c(c1C)C(c1ccc(C[C@H]3C[C@]4(CN(c5ncc(C(=O)N[C@H]6C(C)(C)[C@H](Oc7ccc(C#N)c(Cl)c7)C6(C)C)cn5)CCO4)C3)cc1)=N[C@@H](Cc1ncco1)c1nnc(C)n1-2` [Compound I-245], the concentration for 50% growth inhibition (GI50) (in the test on VCaP cells; in test [1]; in the test on T47D cells; in test [2]) was < 0.5 µM each time.
Take `Cc1sc2c(c1C)C(c1ccc(Cl)cc1)=N[C@H](CC(=O)NCCCCOC1CCN(c3ncc(C(=O)N[C@H]4C(C)(C)[C@H](Oc5ccc(C#N)c(Cl)c5)C4(C)C)cn3)CC1)c1nnc(C)n1-2` [Compound I-21]: the GI50 in the test on VCaP cells is < 0.5 µM; in test [1], < 0.5 µM; with T47D cells it was 0.5 to 1.5 µM; in test [2] it was > 3 µM.
With `Cc1sc2c(c1C)C(c1ccc(CCCOC3CCN(c4ncc(C(=O)N[C@H]5C(C)(C)[C@H](Oc6ccc(C#N)c(Cl)c6)C5(C)C)cn4)CC3)cc1)=C[C@H](Cc1cccnc1)c1nnc(C)n1-2` [Compound I-246], the GI50 was < 0.5 µM with VCaP cells, < 0.5 µM in test [1], < 0.5 µM in the test with T47D cells and > 3 µM in test [2].
Take `Cc1sc2c(c1C)C(c1ccc(-c3noc(C4CCN(c5ncc(C(=O)N[C@H]6C(C)(C)[C@H](Oc7ccc(C#N)c(Cl)c7)C6(C)C)cn5)CC4)n3)cc1)=N[C@@H](Cc1ncco1)c1nnc(C)n1-2` [Compound I-454]: the GI50 with VCaP cells was < 0.5 µM; in test [1], < 0.5 µM; in the test with T47D cells, 0.5 to 1.5 µM; in test [2], < 0.5 µM.
With `Cc1sc2c(c1C)C(c1ccc([C@H]3C[C@H]([C@@H]4CCN(c5ncc(C(=O)N[C@H]6C(C)(C)[C@H](Oc7ccc(C#N)c(Cl)c7)C6(C)C)cn5)C4)C3)cc1)=N[C@@H](Cc1ncco1)c1nnc(C)n1-2` [Compound I-414], the GI50 (in the test on VCaP cells; in test [1]; in the test on T47D cells; in test [2]) was > 3 µM each time.
For the compound `Cc1sc2c(c1C)C(c1ccc(N3CCN(C(=O)c4ncc(C(=O)N[C@H]5C(C)(C)[C@H](Oc6ccc(C#N)c(Cl)c6)C5(C)C)cn4)CC3)cc1)=N[C@H](Cc1ncco1)c1nnc(C)n1-2` [Compound I-341], the GI50 in the test with VCaP cells is < 0.5 µM; in test [1] it was 0.5 to 1.5 µM; with T47D cells, 0.5 to 1.5 µM; in test [2], 0.5 to 1.5 µM.
